Patent publication US11560370B1, “5-membered heteroaryl carboxamide compounds for treatment of HBV” (Assembly Biosciences, Inc., priority 2018, dated 2023)
Read-outs that look alike come from different tables or passages of the source.

Test system: HBV
Experiment: Viral production from HepAD38 cells, viral load by qPCR of HBV core sequence
Assay type: cell-based
Conditions: 5 days, supernatant HBV DNA by qPCR, read-out: Viral Load EC50 Activity range
Method in brief: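 HepAD38 cells in tetracycline-free medium with 2% FBS, 50,000 cells/well, treated 5 days at 37° C. with compound from 10 μM top concentration (1% DMSO final). Supernatant HBV DNA measured by TaqMan qPCR of core sequence against standards, versus DMSO wells; viability by CellTiter-Glo; EC50/CC50 by four-parameter fit.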

[1] = Hepatitis B virus, HePAD38, 120 h

Row | Compound | EC50 | EC50 [1]
1 | Cn1cc(C2CC3CC(c4nn(C)c(N)c4C(=O)Nc4ccc(F)c(Cl)c4)CC3C2)cn1 (centres unmarked) [AIA-049] | < 100 nM | 
2 | Cn1cc(-c2ccc([C@H]3CC[C@@H](c4nn(C)c(N)c4C(=O)Nc4ccc(F)c(Cl)c4)C3)cc2)cn1 [AIA-050-A, 5-Amino-N-(3-chloro-4-fluorophenyl)-1-methyl-3-((1R,3S)-3-(4-(1-methyl-1H-pyrazol-4-yl)phenyl)cyclopentyl)-1H-pyrazole-4-carboxamide] |  | < 100 nM
3 | Cn1cc(-c2ccc([C@H]3CC[C@H](c4nn(C)c(N)c4C(=O)Nc4ccc(F)c(Cl)c4)C3)cc2)cn1 [AIA-050-B, 5-amino-N-(3-chloro-4-fluorophenyl)-1-methyl-3-((1S,3S)-3-(4-(1-methyl-1H-pyrazol-4-yl)phenyl)cyclopentyl)-1H-pyrazole-4-carboxamide] |  | < 100 nM
4 | CN1CC2CC(c3nn(C)c(N)c3C(=O)Nc3ccc(F)c(Cl)c3)CC2C1 (centres unmarked) [AIA-052, 5-Amino-N-(3-chloro-4-fluorophenyl)-1-methyl-3-(2-methyloctahydrocyclopenta [c]pyrrol-5-yl)-1H-pyrazole-4-carboxamide] |  | 500 to 10000 nM
5 | CC(C)N1CC2CC(c3nn(C)c(N)c3C(=O)Nc3ccc(F)c(Cl)c3)CC2C1 (centres unmarked) [AIA-053, 5-Amino-N-(3-chloro-4-fluorophenyl)-3-(2-isopropyloctahydrocyclopenta[c]pyrrol-5-yl)-1-methyl-1H-pyrazole-4-carboxamide] |  | 500 to 10000 nM
6 | CC(N1CC2CC(c3nn(C)c(N)c3C(=O)Nc3ccc(F)c(Cl)c3)CC2C1)C(F)(F)F (centres unmarked) [AIA-054, 5-Amino-N-(3-chloro-4-fluorophenyl)-1-methyl-3-(2-(1,1,1-trifluoropropan-2-yl)octahydrocyclopenta[c]pyrrol-5-yl)-1H-pyrazole-4-carboxamide] |  | < 100 nM
7 | Cn1nc(C2CC3CSCC3C2)c(C(=O)Nc2ccc(F)c(Cl)c2)c1N (centres unmarked) [AIA-055] | < 100 nM | 
8 | Cn1nc(C2CC3CC(OC(C)(C)C)CC3C2)c(C(=O)Nc2ccc(F)c(Cl)c2)c1N (centres unmarked) [AIA-058, 5-Amino-3-(5-(tert-butoxy)octahydropentalen-2-yl)-N-(3-chloro-4-fluorophenyl)-1-methyl-1H-pyrazole-4-carboxamide] |  | < 100 nM
9 | Cn1nc(C2CC3CC(N)CC3C2)c(C(=O)Nc2ccc(F)c(Cl)c2)c1N (centres unmarked) [AIA-073] | 100 to 500 nM | 
10 | Cn1nc(C2CC3CC([S+](C)[O-])CC3C2)c(C(=O)Nc2ccc(F)c(Cl)c2)c1N (centres unmarked) [AIA-074] | < 100 nM | 
11 | CC[S+]([O-])C1CC2CC(c3nn(C)c(N)c3C(=O)Nc3ccc(F)c(Cl)c3)CC2C1 (centres unmarked) [AIA-075, 5-Amino-N-(3-chloro-4-fluorophenyl)-3-(5-(ethylsulfinyl)octahydropentalen-2-yl)-1-methyl-1H-pyrazole-4-carboxamide] |  | < 100 nM
12 | Cn1nc(C2CC3CC(O)(C4CC4)CC3C2)c(C(=O)Nc2ccc(F)c(Cl)c2)c1N (centres unmarked) [AIA-077, 5-Amino-N-(3-chloro-4-fluorophenyl)-3-(5-cyclopropyl-5-hydroxyoctahydropentalen-2-yl)-1-methyl-1H-pyrazole-4-carboxamide] |  | < 100 nM
13 | CC(C)S(=O)(=O)N1CC2CC(c3nn(C)c(N)c3C(=O)Nc3ccc(F)c(Cl)c3)CC2C1 (centres unmarked) [AIA-085, 5-Amino-N-(3-chloro-4-fluorophenyl)-3-(2-(isopropylsulfonyl)octahydrocyclopentyl[c]pyrrol-5-yl)-1-methyl-1H-pyrazole-4-carboxamide] |  | < 100 nM
14 | Cn1nc(C2CC3CC(NS(=O)(=O)C(F)(F)F)CC3C2)c(C(=O)Nc2ccc(F)c(Cl)c2)c1N (centres unmarked) [AIA-086] | < 100 nM | 
15 | Cn1nc(C2CC3CC(OCC(F)(F)F)CC3C2)c(C(=O)Nc2ccc(F)c(Cl)c2)c1N (centres unmarked) [AIA-101, 5-Amino-N-(3-chloro-4-fluorophenyl)-1-methyl-3-(5-(2,2,2-trifluoroethoxy)octahydropentalen-2-yl)-1H-pyrazole-4-carboxamide] |  | < 100 nM
16 | CNC1CC2CC(c3nn(C)c(N)c3C(=O)Nc3ccc(F)c(Cl)c3)CC2C1 (centres unmarked) [AIA-102] | 100 to 500 nM | 
17 | Cn1nc(C2CC3CC(NCCO)CC3C2)c(C(=O)Nc2ccc(F)c(Cl)c2)c1N (centres unmarked) [AIA-103, 5-Amino-N-(3-chloro-4-fluorophenyl)-3-(5-((2-hydroxyethyl)amino)octahydropentalen-2-yl)-1-methyl-1H-pyrazole-4-carboxamide] |  | 100 to 500 nM
18 | Cn1nc([C@@H]2CC3CC(O)(CS(C)(=O)=O)C[C@@H]3C2)c(C(=O)Nc2ccc(F)c(Cl)c2)c1N (some centres unmarked) [AIA-227-1, 5-Amino-N-(3-chloro-4-fluorophenyl)-3-((2r,5r)-5-hydroxy-5-(methylsulfonylmethyl)octahydropentalen-2-yl)-1-methyl-1H-pyrazole-4-carboxamide] | < 100 nM | 
19 | Cn1nc([C@H]2CC3C[C@](O)(CS(C)(=O)=O)CC3C2)c(C(=O)Nc2ccc(F)c(Cl)c2)c1N (some centres unmarked) [AIA-227-2, 5-Amino-N-(3-chloro-4-fluorophenyl)-3-((2s,5s)-5-hydroxy-5-(methylsulfonylmethyl)octahydropentalen-2-yl)-1-methyl-1H-pyrazole-4-carboxamide] |  | < 100 nM

Row | Compound | EC50 | EC50 [1]
20 | Cn1nc(C2CC3CCCC3C2)c(C(=O)Nc2ccc(F)c(Cl)c2)c1N (centres unmarked) [AIA-232] | < 100 nM | 
21 | Cn1nc(C2CC3CC(O)(CC(=O)O)CC3C2)c(C(=O)Nc2ccc(F)c(Cl)c2)c1N (centres unmarked) [AIA-241] | < 100 nM | 
22 | Cn1nc(C2CC3CC(N4CCNC(=O)C4)CC3C2)c(C(=O)Nc2ccc(F)c(C#N)c2)c1N (stereo not drawn) [AIA-246, 5-Amino-N-(3-cyano-4-fluorophenyl)-1-methyl-3-(5-(3-oxopiperazin-l-yl)octahydropentalen-2-yl)-1H-pyrazole-4-carboxamide] |  | < 100 nM
23 | Cn1nc(C2CC3CC(O)(CS(=O)(=O)C4CC4)CC3C2)c(C(=O)Nc2ccc(F)c(Cl)c2)c1N (centres unmarked) [AIA-252-1, 5-Amino-N-(3-chloro-4-fluorophenyl)-3-(5-((cyclopropylsulfonyl)methyl)-5-hydroxyortahydropentalen-2-yl)-1-methyl-1H-pyrazole-4-carboxamide] |  | < 100 nM
24 | Cn1nc(C2CC3CC(O)(COC(F)F)CC3C2)c(C(=O)Nc2ccc(F)c(Cl)c2)c1N (centres unmarked) [AIA-253-1] | < 100 nM | 
25 | Cn1nc(C2CC3CC(O)(COCC(F)(F)F)CC3C2)c(C(=O)Nc2ccc(F)c(Cl)c2)c1N (centres unmarked) [AIA-254, 5-Amino-N-(3-chloro-4-fluorophenyl)-3-((2s,5s)-5-hydroxy-5-((2,2,2-trifluoroethoxy)methyl)octahydropentalen-2-yl)-1-methyl-1H-pyrazole-4-carboxamide] |  | < 100 nM
26 | CCC1OC[C@]2(CC3C[C@H](c4nn(C)c(N)c4C(=O)Nc4ccc(F)c(Cl)c4)C[C@@H]3C2)O1 (some centres unmarked) [AIA-255-5] | < 100 nM | 
27 | CC(C)C1(O)CC2C[C@@H](c3nn(C)c(N)c3C(=O)Nc3ccc(F)c(Cl)c3)C[C@H]2C1O (some centres unmarked) [AIA-257-1] | < 100 nM | 
28 | Cn1nc(C2CC3CC(O)(C(C)(C)O)CC3C2)c(C(=O)Nc2ccc(F)c(Cl)c2)c1N (centres unmarked) [AIA-257] | < 100 nM | 
29 | Cn1nc(C2CC3CC(O)(CSCC(F)(F)F)CC3C2)c(C(=O)Nc2ccc(F)c(Cl)c2)c1N (centres unmarked) [AIA-258-1, 5-Amino-N-(3-chloro-4-fluorophenyl)-3-(5-hydroxy-5-(((2,2,2-trifluoroethyl)thio)methyl)octahydropentalen-2-yl)-1-methyl-1H-pyrazole-4-carboxamide] |  | < 100 nM
30 | Cn1nc(C2CC3CC(O)(C[S+]([O-])CC(F)(F)F)CC3C2)c(C(=O)Nc2ccc(F)c(Cl)c2)c1N (centres unmarked) [AIA-259-A, 5-Amino-N-(3-chloro-4-fluorophenyl)-3-((2r,5r)-5-hydroxy-5-((2,2,2-trifluoroethylsulfinyl)methyl)octahydropentalen-2-yl)-1-methyl-1H-pyrazole-4-carboxamide] |  | < 100 nM
31 | Cn1nc(C2CC3CC(O)(CSC(C)(C)C)CC3C2)c(C(=O)Nc2ccc(F)c(Cl)c2)c1N (centres unmarked) [AIA-262-1, 5-Amino-3-(5-((tert-butylthio)methyl)-5-hydroxyoctahydropentalen-2-yl)-N-(3-chloro-4-fluorophenyl)-1-methyl-1H-pyrazole-4-carboxamide] |  | < 100 nM
32 | Cn1nc(C2CCN(c3ccccc3)C2)c(C(=O)Nc2ccc(F)c(Cl)c2)c1N (centres unmarked) [AIA-262] | 100 to 500 nM | 
33 | CN(C)S(=O)(=O)CC1(O)CC2CC(c3nn(C)c(N)c3C(=O)Nc3ccc(F)c(Cl)c3)CC2C1 (centres unmarked) [AIA-265, 5-Amino-N-(3-chloro-4-fluorophenyl)-3-(5-((N,N-dimethylsulfamoyl)methyl)-5-hydroxyoctahydropentalen-2-yl)-1-methyl-1H-pyrazole-4-carboxamide] |  | < 100 nM
34 | CN(C)C(=O)CC1(O)CC2CC(c3nn(C)c(N)c3C(=O)Nc3ccc(F)c(Cl)c3)CC2C1 (centres unmarked) [AIA-270, 5-Amino-N-(3-chloro-4-fluorophenyl)-3-(5-(2-(dimethylamino)-2-oxoethyl)-5-hydroxyoctahydropentalen-2-yl)-1-methyl-1H-pyrazole-4-carboxamide] |  | < 100 nM
35 | Cn1nc(C2CCC(c3ccccc3Cl)C2)c(C(=O)Nc2ccc(F)c(Cl)c2)c1N (centres unmarked) [AIA-272, 5-Amino-N-(3-chloro-4-fluorophenyl)-3-(3-(2-chlorophenyl)cyclopentyl)-1-methyl-1H-pyrazole-4-carboxamide] |  | < 100 nM
36 | Cn1nc(C2CCC(c3ccc(Cl)cc3)C2)c(C(=O)Nc2ccc(F)c(Cl)c2)c1N (centres unmarked) [AIA-274, 5-Amino-N-(3-chloro-4-fluorophenyl)-3-(3-(4-chlorophenyl)cyclopentyl)-1-methyl-1H-pyrazole-4-carboxamide] |  | 100 to 500 nM
37 | Cn1nc(C2CC3CC(O)(C(=O)NC4CC4)CC3C2)c(C(=O)Nc2ccc(F)c(Cl)c2)c1N (centres unmarked) [AIA-274-1, 5-Amino-N-(3-chloro-4-fluorophenyl)-3-(5-(cyclopropylcarbamoyl)-5-hydroxyoctahydropentalen-2-yl)-1-methyl-1H-pyrazole-4-carboxamide] |  | < 100 nM
38 | Cn1nc(C2CC3CC(O)(C(=O)NC4CC4)CC3C2)c(C(=O)Nc2ccc(F)c(Cl)c2)c1N (centres unmarked) [AIA-274-2, 5-Amino-N-(3-chloro-4-fluorophenyl)-3-(5-(cyclopropylcarbamoyl)-5-hydroxyoctahydropentalen-2-yl)-1-methyl-1H-pyrazole-4-carboxamide] | < 100 nM | 
